# Tests used:
# Electric eel AChE = target: T1, Electric eel AChE (Electrophorus electricus, UniProt O42275); assay: biochemical; conditions: AChE from electric eel; mean ± SD from three separate experiments; read-out: IC50 EeAChE
# T1 construct: purchased Sigma-Aldrich (Steinheim, Germany)
# Experimental: (§1) The AChE and BChE inhibitory activities of compounds were determined by using a slightly modified Ellman’s method. Electric eel AChE, equine serum BChE, 5,5′-dithiobis(2-nitrobenzoic acid) (DTNB), phosphate buffer solution (PBS, pH 8.0), acetylthiocholine (ATC) iodide, and butyrylthiocholine (BUC) iodide were purchased from Sigma-Aldrich (Steinheim, Germany). […] Enzyme solutions were prepared at 2.0 U/mL in 2-mL aliquots. The assay medium consisted of 10 μL of enzyme, 40 μL of PBS, 20 μL of 0.01 M DTNB, and 10 μL of tested compound. Assayed solutions of tested compounds were pre-incubated with corresponding ChE for 5 min. The reaction was initiated by the addition of 20 μL of 0.01 M substrate (ATC or BUC). The activity was determined by measuring the increase in absorbance at 410 nm at 37 °C in 2-min intervals using Tecan Spark multimode microplate reader (Mannedorf, Switzerland). The percentage of inhibition (I) was calculated from the measured data as follows: I = (Ac − Ai)/Ac × 100%, where Ai and Ac represent the change in the absorbance in the presence of an inhibitor and without an inhibitor, respectively.
# equine serum BChE = target: T2, equine serum BChE (Equus caballus, UniProt P81908); assay: biochemical; conditions: BChE from equine serum; mean ± SD from three separate experiments; read-out: IC50 eqBChE
# T2 construct: purchased Sigma-Aldrich (Steinheim, Germany); host or cells: equine serum
# Experimental: as §1
# Aβ1–42 = target: T3, Aβ1–42 (Homo sapiens, UniProt P05067); assay: Inhibition of self-induced Aβ1–42 aggregation (ThT fluorescence); type: biochemical; conditions: Aβ1–42 2.5 µM, compound 10 µM; mean ± SD of three experiments
# T3 construct: pre-treated Aβ1–42 (GL Biochem Ltd., Shanghai, China) was dissolved in DMSO; purchased GL Biochem Ltd., Shanghai, China
# Experimental: In order to investigate the inhibition of compounds on Aβ1–42 self-aggregation, a ThT-based fluorometric assay was performed. 1,1,1,3,3,3-hexafluoro-2-propanol (HFIP) pre-treated Aβ1–42 (GL Biochem Ltd., Shanghai, China) was dissolved in DMSO to make a 200 µM stock solution. The stock solution was centrifuged at the speed of 13,500 rpm for 10 min. The above supernatant was used for experiments. The tested compounds were dissolved in DMSO at concentrations of 0.8 mM. A screening assay for the tested compounds to inhibit A aggregation was performed by measuring ThT fluorescence emission. Compounds (2 µL) and 2 µL of 200 µM Aβ1–42 were added into 76 µL of phosphate-buffered saline (PBS at pH 7.4) in a 96-well plate. After incubation for 24 h at room temperature, 80 µL of 5 µM of ThT solution (in 50 mM of glycine-NaOH at pH 8.5) was added to the reaction solution. Fluorescence emission was measured at 490 nm with an excitation wavelength of 450 nm on a Tecan Spark multimode microplate reader. […] The fluorescence intensities were compared, and the % inhibition was calculated by the following equation: 100 − [(Fi − Fb)/(Fo − Fb) × 100], where Fi, Fo and Fb are the fluorescence intensities obtained for Aβ aggregation in the presence of inhibitors Aβ1–42 and ThT; in the presence of Aβ1–42 and THT but no inhibitors; and the blanks containing ThT only.
# Aβ1–42 and AChE = target: T4, Aβ1–42 and AChE (Electrophorus electricus, UniProt O42275); assay: Inhibition of AChE-induced Aβ1–42 aggregation (ThT fluorescence); type: biochemical; conditions: Aβ1–42 2.5 µM, AChE 0.2 U/mL, compound 8 µM; mean ± SD of three experiments
# T4 construct: HFIP pre-treated Aβ1–42 (GL Biochem Ltd., shanghai, China) was dissolved in DMSO; purchased GL Biochem Ltd. (Aβ1–42)
# Experimental: The stock solution was centrifuged at the speed of 13,500 rpm for 10 min. The above supernatant was used for experiments. […] Fluorescence emission was measured at 490 nm with an excitation wavelength of 450 nm on a Tecan Spark multimode microplate reader.
# in vitro = conditions: human
# Experimental: Thus, to verify the hepatotoxicity of 1 and 12j, a 3-(4,5-dimethylthiazol-2-yl)-2,5-diphenyltetrazolium bromide (MTT) assay on the human hepatoma cell line (HepG2) was carried out.
# The cytotoxicity of selected compounds was evaluated on HepG2 cells. Cells were inoculated into 96-well plates. After incubation for 24 h, the cells were treated with different concentrations of tested compounds for 24 h, and then were incubated with 10 μL of 3-(4,5-dimethylthiazol-2-yl)-2,5-diphenyltetrazolium bromide (MTT) at 37 °C for 2 h. The formazan dye product was measured by the absorbance at 490 nm on a Tecan Spark multimode microplate reader.
# AChE = tested on: AChE; set-up: method as in PMID 24547899; conditions: read-out: AChE IC50 (reported value); cited from earlier work
# T1 sequence (O42275 24-633): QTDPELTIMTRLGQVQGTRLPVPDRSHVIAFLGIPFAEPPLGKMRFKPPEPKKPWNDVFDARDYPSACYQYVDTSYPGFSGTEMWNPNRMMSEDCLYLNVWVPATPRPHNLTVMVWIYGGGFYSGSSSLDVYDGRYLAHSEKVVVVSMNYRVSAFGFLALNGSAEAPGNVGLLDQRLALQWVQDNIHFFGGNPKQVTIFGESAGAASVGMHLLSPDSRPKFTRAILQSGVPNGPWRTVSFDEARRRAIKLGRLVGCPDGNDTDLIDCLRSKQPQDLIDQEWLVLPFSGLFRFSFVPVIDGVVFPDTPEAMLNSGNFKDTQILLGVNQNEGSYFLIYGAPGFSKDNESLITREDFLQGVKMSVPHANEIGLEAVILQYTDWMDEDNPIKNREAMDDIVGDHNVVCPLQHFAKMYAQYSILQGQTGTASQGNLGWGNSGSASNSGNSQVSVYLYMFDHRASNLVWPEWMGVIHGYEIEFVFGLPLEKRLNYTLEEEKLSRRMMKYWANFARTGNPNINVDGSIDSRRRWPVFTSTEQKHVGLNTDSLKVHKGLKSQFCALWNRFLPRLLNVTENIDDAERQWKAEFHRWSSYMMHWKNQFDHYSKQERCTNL
# T4 sequence (O42275 24-633): as above
# T2 sequence (P81908 whole entry): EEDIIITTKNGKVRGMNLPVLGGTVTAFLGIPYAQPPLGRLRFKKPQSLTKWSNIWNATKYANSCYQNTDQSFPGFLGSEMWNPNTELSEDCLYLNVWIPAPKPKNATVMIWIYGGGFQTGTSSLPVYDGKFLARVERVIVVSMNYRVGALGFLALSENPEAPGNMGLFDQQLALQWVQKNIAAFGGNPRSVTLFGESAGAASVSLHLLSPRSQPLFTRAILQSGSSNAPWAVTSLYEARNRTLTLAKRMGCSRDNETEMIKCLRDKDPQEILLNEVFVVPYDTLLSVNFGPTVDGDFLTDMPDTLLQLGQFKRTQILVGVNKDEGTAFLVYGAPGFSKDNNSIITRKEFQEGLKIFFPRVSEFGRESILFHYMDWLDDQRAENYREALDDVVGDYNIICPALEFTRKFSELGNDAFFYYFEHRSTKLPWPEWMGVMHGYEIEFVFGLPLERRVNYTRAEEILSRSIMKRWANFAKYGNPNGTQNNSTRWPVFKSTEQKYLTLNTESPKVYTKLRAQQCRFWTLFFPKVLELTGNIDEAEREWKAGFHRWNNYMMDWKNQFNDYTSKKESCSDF
# T3 sequence (P05067 672-713 limits assumed): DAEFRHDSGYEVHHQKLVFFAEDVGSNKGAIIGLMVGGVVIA
smiles,measurement,setting,value
"COc1c(Br)cc(CC(=O)NCCCCC[N+](C)(C)C)cc1Br [Compound 1, Pulmonarin B]",IC50,Electric eel AChE,37 ± 2.11 µM
same,IC50,equine serum BChE,30.7 ± 1.44 µM
same,Inhibition of Aβ Aggregation (%) Self-Induced,Aβ1–42,29.78 ± 1.45%
same,Inhibition of Aβ Aggregation (%) AChE-Induced,Aβ1–42 and AChE,27.60 ± 1.96%
same,IC50 at 24 h,in vitro,> 80 µM
same,IC50,AChE,36 µM

# Source: paper PMC6164518 (Marine Drugs, 2018)
